# Data taken from US9080199B2, “Method to generate novel bioactive molecules” (priority 2010, dated 2015).
# “Also recorded” adds a separate entry of the source.
# Tested on: S. aureus N315 (MRSA N315)
# Test: Disk / agar diffusion bioactivity test (zone of inhibition) against S. aureus N315
# Assay type: cell-based, Staphylococcus aureus
# Conditions: clavu7 extract compounds/fractions, 25-30 μL on 6 mm filter disks on N315 lawn on TSA, 16-20 hours at 30° C.
# Protocol: The two compounds were separated from one another by re-injecting the 11 to 11.5 minute fraction into the LC-MS system using an isocratic mobile phase of 30% methanol in water. Once separated, the two compounds were collected, concentrated by evaporating the solvent to a total volume of approximately 50 μL, and tested against S. aureus N315 to definitively determine which one is bioactive. This turned out to be m/z=215, which was identified as holomycin. Bioactivity testing is carried out by first spreading approximately 150 μL of an OD600˜0.01 S. aureus N315 culture in TSB onto a TSA plate to create a lawn of S. aureus N315. Next, 25-30 μL of each sample is deposited onto 6 mm sterile filter disks. The disks are allowed to dry and then placed onto the S. aureus N315 lawn. This plate is incubated for 16-20 hours at 30° C., after which it was examined for the appearance of a zone of inhibition around the disks.
# The methanol sample was then concentrated further using a vacuum centrifuge (speed-vac or speed-yap) until approximately 100 μL remained. A 25 μL aliquot was then used to test for bioactivity against MRSA N315. This aliquot, which has not yet been fractionated on an HPLC system, is called a “crude extract.” About 40-50 μL of the concentrated sample was also injected into an HPLC-MS system. […]
compound,measurement,setting,value
CC(=O)Nc1c2sscc-2[nH]c1=O [holomycin],bioactivity against S. aureus N315 (zone of inhibition around disks),,inhibits growth; also recorded: bioactive
same,bioactivity against S. aureus N315 (zone of inhibition around disks),listed as m/z=215 compound,bioactive
